Patent US11871713B2, “Rice cultivar designated ‘PVL02’” (Board of Supervisors of Louisiana State University and …, priority 2019, dated 2024)

Tested on: ‘PVL02’ rice
Assay: Herbicide tolerance of rice cultivar 'PVL02'
Type: in vivo, Oryza sativa
Conditions: rice variety ‘PVL02’ carrying plastidic ACCase I1781(Am)L; rate not given
Description: ‘PVL02’ is an early maturing, long-grain rice variety that is tolerant to ACCase herbicides. For example, ‘PVL02’ is tolerant to Quizalofop-P-ethyl, the generic name for ethyl (R)-2-[4-(6-chloroquinoxalin-2-yl) oxy)phenoxy]propionate, which is sold under the tradename Provisia™ herbicide. PVL02 has excellent milling potential, very low chalk, and a grain length-width ratio of 2.8. ‘PVL02’ was developed using a pedigree selection system at the Louisiana State University Agricultural Center's H. Rouse Caffey Rice Research Station (HRCRRS) in Crowley, Louisiana ‘PVL02’ was selected from the cross Cheniere/BASF 1-5, a cross that was made at the HRCRRS in 2012. ‘Cheniere’ is a commercially-available cultivar. An earlier experimental designation for the ‘PVL02’ line was PVL-108.
The ‘PVL02’ line was developed from the bulk of a single F3 line (14P2980) made at the Puerto Rico winter rice nursery in 2014. ‘PVL02’ was evaluated in a Provisia preliminary yield trial at the HRCRRS in 2014 and 2015, under the experimental designation 14PVL108, before being entered into the Louisiana statewide commercial/advanced yield testing program in 2016-2018.

CCOC(=O)[C@@H](C)Oc1ccc(Oc2cnc3cc(Cl)ccc3n2)cc1 [Quizalofop-P-ethyl]
tolerance of the rice variety to the herbicide: tolerant
